Results taken from article PMC4521150, “Discovery of Novel Inhibitors and Fluorescent Probe Targeting NAMPT” (Scientific Reports, 2015).

Molecular target: T1, recombinant human NAMPT (Homo sapiens, UniProt P43490)
T1 construct: His tag (N); made in house; host or cells: E. coli BL21-CodonPlus (DE3)-RIL, pET21a+ vector
Assay: HTS / fixed-concentration NAMPT activity screen (fluorometric)
Type: biochemical
Conditions: 20 μM compound; analogues of the 46 non-fluorescent inhibitors
Source text: Using our previously established high throughput screening (HTS) platform and recombinant human NAMPT[14][15], we performed a HTS on a chemical library containing 30000 small-molecules (Chemdiv, CA, USA). Our HTS targeting NAMPT was developed based on a fluorometric method for NAMPT activity assay by measuring the fluorescence of nicotinamide mononucleotide (NMN) derivative resulting from the NAMPT enzymatic product NMN through simple chemical reactions (Fig. 1A). The 30000 compounds were dissolved with dimethyl sulfoxide (DMSO); most of compounds were soluble at 10 mM stock solution (94.1%), some compounds insoluble at 10 mM were soluble at 2.5 mM stock solution (4.4%), and the remaining compounds insoluble at 2.5 mM (1.5%) were diluted further during HTS experiments (Fig. 1B). To guarantee the quality of screening, S/N ratio, CV and Z’ factors were monitored throughout the screenings, and all three indices met the requirements of HTS (Fig. 1C–E). After a primary screen and a secondary screen of all compounds at 20 μM, 242 compounds were selected as the hits of NAMPT inhibitors (NAMPT activity < 40%), and the hit rate was ~0.8% (Fig. 1F). […] All these 55 compounds were not reported as NAMPT inhibitors previously. Among the 55 compounds, we noted 46 compounds were non-fluorescent and 9 compounds were fluorescent (Fig. 1F). These fluorescent and non-fluorescent compounds were further studied separately.
HTS was performed using our previously reported method. 0.5 μl stock of each compound (1 mM DMSO stock) was transferred to a 96-well PCR plate for screening. In the primary screening, 5 ng NAMPT in 20 μl reaction buffer [0.4 mM phosphoribosylpyrophosphate (PRPP, Sigma), 2 mM ATP, 0.02% BSA, 2 mM DTT, 12 mM MgCl2 and 50 mM Tris-HCl (pH = 7.5)] was added into each well, the plate was incubated at 37 °C for 5 min, then 4.5 μl substrate of NAM was added to initiate the enzyme reaction, resulting in a final concentration of 2% DMSO, 2 μg/ml NAMPT, 0.2 μM NAM and 20 μM compound. After reacting at 37 °C for 15 min, the enzyme reaction was terminated by heating at 95 °C for 1 min and cooling in an ice bath. The product of NMN was detected through the following approach: after adding 10 μl 20% acetophenone in DMSO and 10 μl 2 M KOH into each well, the mixture was vortex-mixed and kept in ice bath for 2 min. Then 45 μl 88% formic acid was added and the mixture was incubated at 37 °C for 10 min. Finally, 85 μl mixtures in each well were transferred into a flat-bottom 96-well black plate (Greiner), and the fluorescence (F) was measured using a Tecan Infinity M200 plate reader (Tecan Group Ltd.) by setting the excitation and emission wavelength to 382 nm and 445 nm respectively. The last row of each 96-well plate includes six wells of background controls and six wells of reference controls. The relative enzyme activity (Activity%) regulated by specific compound was calculated according to equation (1):
F0 was the averaged fluorescence of six background controls, representing zero activity from a simulated enzyme reaction with only NAMPT but no NAM and compound; F100% was the averaged fluorescence of six reference controls, representing 100% activity from intact enzyme reaction without compound perturbation.
Compounds with Activity% less than 40% were considered as inhibitors and subjected to a secondary screen inhibition validation, in which another background control (FC0), a simulated enzyme reaction with NAMPT and compound but no NAM, was introduced to eliminate the direct and/or indirect influence from compound. At this stage, the Activity% was calculated according to equation (2): […]

T1 sequence (P43490 whole entry): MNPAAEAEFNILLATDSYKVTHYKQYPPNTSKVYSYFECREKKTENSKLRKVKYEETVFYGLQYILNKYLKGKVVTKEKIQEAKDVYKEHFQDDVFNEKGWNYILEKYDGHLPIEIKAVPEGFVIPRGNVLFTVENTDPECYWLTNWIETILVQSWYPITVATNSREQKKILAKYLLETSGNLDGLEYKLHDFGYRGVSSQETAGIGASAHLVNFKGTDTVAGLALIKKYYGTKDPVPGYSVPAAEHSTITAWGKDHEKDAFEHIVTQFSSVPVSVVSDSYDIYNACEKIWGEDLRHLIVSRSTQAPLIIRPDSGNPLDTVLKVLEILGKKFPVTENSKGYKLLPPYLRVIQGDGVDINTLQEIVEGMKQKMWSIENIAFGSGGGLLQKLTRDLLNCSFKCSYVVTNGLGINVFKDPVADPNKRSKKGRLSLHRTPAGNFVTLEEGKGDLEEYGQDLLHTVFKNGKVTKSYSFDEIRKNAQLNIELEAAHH

## COc1ccc(OC)c(CNC(=O)CCCn2c(=O)c3cccn3c3cccnc32)c1 [C799-0387]
  NAMPT inhibition activity at 20 μM: No (showed no NAMPT inhibition activity at 20 μM (NAMPT activity ≥40%))

## Cc1ccc(OCc2ccc(-c3nc(C#N)c(NCc4cccnc4)o3)o2)cc1 [D301-0100]
  NAMPT inhibition activity at 20 μM: No (showed no NAMPT inhibition activity at 20 μM (NAMPT activity ≥40%))

## Cc1cccc(OCc2ccc(-c3nc(C#N)c(NCc4cccnc4)o3)o2)c1 [D301-0252]
  NAMPT inhibition activity at 20 μM: No (showed no NAMPT inhibition activity at 20 μM (NAMPT activity ≥40%))

## Cc1ccccc1OCc1ccc(-c2nc(C#N)c(NCc3cccnc3)o2)o1 [D301-0303]
  NAMPT inhibition activity at 20 μM: No (showed no NAMPT inhibition activity at 20 μM (NAMPT activity ≥40%))

## Cc1c(Cl)cccc1NC(=O)Cn1nc(C)c2sc3ccccc3c2c1=O [E019-0120]
  NAMPT inhibition activity at 20 μM: No (showed no NAMPT inhibition activity at 20 μM (NAMPT activity ≥40%))

## Cc1cc(C)c(NC(=O)C(C)n2nc(C)c3sc4ccccc4c3c2=O)c(C)c1 (stereo not shown) [E019-0435]
  NAMPT inhibition activity at 20 μM: No (showed no NAMPT inhibition activity at 20 μM (NAMPT activity ≥40%))

## Cc1nn(CCCC(=O)Nc2ccccc2C(F)(F)F)c(=O)c2c1sc1ccccc12 [E019-0923]
  NAMPT inhibition activity at 20 μM: No (showed no NAMPT inhibition activity at 20 μM (NAMPT activity ≥40%))

## COc1cc(OC)c(NC(=O)CCCn2nc(C)c3sc4ccccc4c3c2=O)cc1Cl [E019-0951]
  NAMPT inhibition activity at 20 μM: No (showed no NAMPT inhibition activity at 20 μM (NAMPT activity ≥40%))

## Cc1ccccc1CNC(=O)CCCn1nc(C)c2sc3ccccc3c2c1=O [E019-1139]
  NAMPT inhibition activity at 20 μM: No (showed no NAMPT inhibition activity at 20 μM (NAMPT activity ≥40%))

## CC(=O)c1cccc(NC(=O)Cc2noc3ccccc23)c1 [E207-0513]
  NAMPT inhibition activity at 20 μM: No (showed no NAMPT inhibition activity at 20 μM (NAMPT activity ≥40%))

## COc1ccc(CNC(=O)Cn2c(=O)c3cccn3c3cccnc32)cc1 [E524-0113]
  NAMPT inhibition activity at 20 μM: No (showed no NAMPT inhibition activity at 20 μM (NAMPT activity ≥40%))

## Cc1ccccc1CNC(=O)Cn1c(=O)c2cccn2c2cccnc21 [E524-0298]
  NAMPT inhibition activity at 20 μM: No (showed no NAMPT inhibition activity at 20 μM (NAMPT activity ≥40%))

## O=C(Cn1c(=O)c2cccn2c2cccnc21)NCc1ccccc1F [E524-0299]
  NAMPT inhibition activity at 20 μM: No (showed no NAMPT inhibition activity at 20 μM (NAMPT activity ≥40%))

## O=C(Cn1c(=O)c2cccn2c2cccnc21)NCc1cccc(F)c1 [E524-0302]
  NAMPT inhibition activity at 20 μM: No (showed no NAMPT inhibition activity at 20 μM (NAMPT activity ≥40%))

## Cc1ccc(Cl)cc1NC(=O)CCCn1c(=O)c2cccn2c2cccnc21 [E524-1295]
  NAMPT inhibition activity at 20 μM: No (showed no NAMPT inhibition activity at 20 μM (NAMPT activity ≥40%))

## Cc1ccc(NC(=O)CCCn2c(=O)c3cccn3c3cccnc32)c(Cl)c1 [E524-1338]
  NAMPT inhibition activity at 20 μM: No (showed no NAMPT inhibition activity at 20 μM (NAMPT activity ≥40%))

## COc1ccc(Cl)cc1NC(=O)CCCn1c(=O)c2cccn2c2cccnc21 [E524-1372]
  NAMPT inhibition activity at 20 μM: No (showed no NAMPT inhibition activity at 20 μM (NAMPT activity ≥40%))

## CCOc1ccc(CCNC(=O)CCCn2c(=O)c3cccn3c3cccnc32)cc1 [E524-1469]
  NAMPT inhibition activity at 20 μM: No (showed no NAMPT inhibition activity at 20 μM (NAMPT activity ≥40%))

## COc1ccc(OC)c(CCNC(=O)CCCn2c(=O)c3cccn3c3cccnc32)c1 [E524-1470]
  NAMPT inhibition activity at 20 μM: No (showed no NAMPT inhibition activity at 20 μM (NAMPT activity ≥40%))

## COc1cccc(CNC(=O)CCCn2c(=O)c3cccn3c3cccnc32)c1OC [E524-1489]
  NAMPT inhibition activity at 20 μM: No (showed no NAMPT inhibition activity at 20 μM (NAMPT activity ≥40%))

## COc1ccc(Br)cc1CNC(=O)CCCn1c(=O)c2cccn2c2cccnc21 [E524-1499]
  NAMPT inhibition activity at 20 μM: No (showed no NAMPT inhibition activity at 20 μM (NAMPT activity ≥40%))

## CCC(C)NC(=O)c1ccc(Cn2c(=O)c3cccn3c3cccnc32)cc1 (stereo not shown) [E524-1568]
  NAMPT inhibition activity at 20 μM: No (showed no NAMPT inhibition activity at 20 μM (NAMPT activity ≥40%))

## O=C(NCc1ccccc1Cl)c1ccc(Cn2c(=O)c3cccn3c3cccnc32)cc1 [E524-1573]
  NAMPT inhibition activity at 20 μM: Yes

## COc1ccc(CCNC(=O)c2ccc(Cn3c(=O)c4cccn4c4cccnc43)cc2)cc1OC [E524-1586]
  NAMPT inhibition activity at 20 μM: No (showed no NAMPT inhibition activity at 20 μM (NAMPT activity ≥40%))

## CN(C)CCNC(=O)c1ccc(Cn2c(=O)c3cccn3c3cccnc32)cc1 [E524-1589]
  NAMPT inhibition activity at 20 μM: No (showed no NAMPT inhibition activity at 20 μM (NAMPT activity ≥40%))

## CC(C)NC(=O)c1ccc(Cn2c(=O)c3cccn3c3cccnc32)cc1 [E524-1612]
  NAMPT inhibition activity at 20 μM: No (showed no NAMPT inhibition activity at 20 μM (NAMPT activity ≥40%))

## CCCNC(=O)c1ccc(Cn2c(=O)c3cccn3c3cccnc32)cc1 [E524-1613]
  NAMPT inhibition activity at 20 μM: No (showed no NAMPT inhibition activity at 20 μM (NAMPT activity ≥40%))

## CCOCCCNC(=O)c1ccc(Cn2c(=O)c3cccn3c3cccnc32)cc1 [E524-1662]
  NAMPT inhibition activity at 20 μM: No (showed no NAMPT inhibition activity at 20 μM (NAMPT activity ≥40%))

## CC(C)OCCCNC(=O)c1ccc(Cn2c(=O)c3cccn3c3cccnc32)cc1 [E524-1673]
  NAMPT inhibition activity at 20 μM: No (showed no NAMPT inhibition activity at 20 μM (NAMPT activity ≥40%))

## COc1ccc(CNC(=O)c2ccc(Cn3c(=O)c4cccn4c4cccnc43)cc2)c(OC)c1 [E524-1754]
  NAMPT inhibition activity at 20 μM: No (showed no NAMPT inhibition activity at 20 μM (NAMPT activity ≥40%))

## CN(C)c1ccc(CNC(=O)c2ccc(Cn3c(=O)c4cccn4c4cccnc43)cc2)cc1 [E524-1758]
  NAMPT inhibition activity at 20 μM: No (showed no NAMPT inhibition activity at 20 μM (NAMPT activity ≥40%))

## CCOc1ccc(CCNC(=O)c2ccc(Cn3c(=O)c4cccn4c4cccnc43)cc2)cc1 [E524-1767]
  NAMPT inhibition activity at 20 μM: No (showed no NAMPT inhibition activity at 20 μM (NAMPT activity ≥40%))

## COc1ccc(Cl)cc1NC(=O)NCc1noc2ccccc12 [E567-0019]
  NAMPT inhibition activity at 20 μM: No (showed no NAMPT inhibition activity at 20 μM (NAMPT activity ≥40%))

## O=C(NCc1ccc(Cl)cc1)NCc1noc2ccccc12 [E567-0228]
  NAMPT inhibition activity at 20 μM: No (showed no NAMPT inhibition activity at 20 μM (NAMPT activity ≥40%))

## CCOc1ccccc1NC(=O)NCc1noc2ccc(C)cc12 [E569-0079]
  NAMPT inhibition activity at 20 μM: No (showed no NAMPT inhibition activity at 20 μM (NAMPT activity ≥40%))

## COc1ccc(OC)c(CNC(=O)NCc2noc3ccc(C)cc23)c1 [E569-0193]
  NAMPT inhibition activity at 20 μM: No (showed no NAMPT inhibition activity at 20 μM (NAMPT activity ≥40%))

## Cc1ccc2onc(CNC(=O)Nc3ccccc3C#N)c2c1 [E569-0217]
  NAMPT inhibition activity at 20 μM: No (showed no NAMPT inhibition activity at 20 μM (NAMPT activity ≥40%))

## O=C(COc1ccc(F)cc1)Nc1ccccc1C(=O)OCc1cc(=O)n2ccsc2n1 [G357-1695]
  NAMPT inhibition activity at 20 μM: No (showed no NAMPT inhibition activity at 20 μM (NAMPT activity ≥40%))

## Cc1cn2c(=O)cc(COC(=O)c3cccc(NC(=O)C(C)Oc4ccccc4)c3)nc2s1 (stereo not shown) [G357-2118]
  NAMPT inhibition activity at 20 μM: No (showed no NAMPT inhibition activity at 20 μM (NAMPT activity ≥40%))

## Cc1ccc2c(=O)cc(CSc3nnc(-c4ccccc4)n3C)[nH]c2c1C [G751-0753]
  NAMPT inhibition activity at 20 μM: No (showed no NAMPT inhibition activity at 20 μM (NAMPT activity ≥40%))
